Measurements: ChEMBL document CHEMBL4321806 (J Med Chem, 2019)

What was measured:
[1] = Cytotoxicity against mouse L929 cells assessed as reduction in cell viability
[2] = tested on: HFF-1; test: Cytotoxicity against human HFF1 cells assessed as reduction in cell viability; assay type: cell-based
[3] = tested on: NIH3T3; test: Cytotoxicity against mouse 3T3 cells assessed as reduction in cell viability; assay type: cell-based

Structure (SMILES) | IC50 [1] [µM] | IC50 [2] [µM] | IC50 [3] [µM]
O=c1cc(-c2ccc(OCCCc3cn(CCOCCOCCOc4ccc5c(=O)cc(-c6ccccc6)oc5c4)nn3)cc2)oc2cc(F)ccc12 | > 100 | – | –
O=c1cc(-c2ccccc2)oc2cc(OCCCc3cn(CCOCCOCCOc4ccc5c(=O)cc(-c6ccccc6)oc5c4)nn3)ccc12 | > 50 | – | –
O=c1cc(-c2ccc(OCCOCCn3cc(CN(Cc4ccccc4)Cc4cn(CCOCCOc5ccc(-c6cc(=O)c7ccccc7o6)cc5)nn4)nn3)cc2)oc2ccccc12 | > 100 | – | –
COC(=O)c1cccc(COc2c(-c3ccc(OCCOCCn4cc(COCCOc5ccc6c(=O)cc(-c7ccccc7)oc6c5)nn4)cc3)oc3ccccc3c2=O)c1 | > 100 | – | –
COC(=O)c1cccc(COc2c(-c3ccc(OCCOCCOCCn4cc(CCCOc5ccc6c(=O)cc(-c7ccccc7)oc6c5)nn4)cc3)oc3ccccc3c2=O)c1 | > 100 | – | –
O=c1cc(-c2ccccc2)oc2cc(OCCCc3cn(CCOCCOCCOc4ccc(-c5oc6ccccc6c(=O)c5OCc5ccccc5)cc4)nn3)ccc12 | > 100 | – | –
COC(=O)c1cccc(COc2c(-c3ccc(OCCOCCOCCn4cc(CCCCOc5ccc(-c6cc(=O)c7cc(C)ccc7o6)cc5)nn4)cc3)oc3ccccc3c2=O)c1 | > 100 | – | –
O=c1cc(-c2ccccc2)oc2cc(OCCOCc3cn(CCOCCOCCOc4ccc(-c5cc(=O)c6cc(F)ccc6o5)cc4)nn3)ccc12 | > 50 | – | –
COC(=O)c1cccc(COc2c(-c3ccc(OCCOCCn4cc(CCCc5cn(CCOCCOc6ccc(-c7oc8ccccc8c(=O)c7OCc7cccc(C(=O)OC)c7)cc6)nn5)nn4)cc3)oc3ccccc3c2=O)c1 | > 100 | > 100 | > 100
O=c1cc(-c2ccccc2)oc2cc(OCCOCCn3cc(COCCOc4ccc5c(=O)cc(-c6ccccc6)oc5c4)nn3)ccc12 | > 100 | – | –
COc1ccc2c3c([nH]c2c1)[C@H](CC(C)C)N1C(=O)[C@H](CCC(=O)OC(C)(C)C)NC(=O)[C@@H]1C3 | 31.4 | 56.5 | > 100
O=c1cc(-c2ccccc2)oc2cc(OCCN(Cc3ccccc3)Cc3cn(CCOc4ccc5c(=O)cc(-c6ccccc6)oc5c4)nn3)ccc12 | > 100 | – | –
O=c1cc(-c2ccccc2)oc2cc(OCCOCCOCCn3cc(COCCOc4ccc5c(=O)cc(-c6ccccc6)oc5c4)nn3)ccc12 | 12.1 | – | –
Cc1ccc2oc(-c3ccc(OCCOCCOCCn4cc(CCCCOc5ccc6c(=O)cc(-c7ccccc7)oc6c5)nn4)cc3)cc(=O)c2c1 | > 50 | – | –
COC(=O)c1cccc(COc2c(-c3ccc(OCCOCCn4cc(CN(Cc5ccncc5)Cc5cn(CCOCCOc6ccc(-c7oc8ccccc8c(=O)c7OCc7cccc(C(=O)OC)c7)cc6)nn5)nn4)cc3)oc3ccccc3c2=O)c1 | > 50 | – | –
COC(=O)c1cccc(COc2c(-c3ccc(OCCOCCn4cc(CN(Cc5ccccc5)Cc5cn(CCOCCOc6ccc(-c7oc8ccccc8c(=O)c7OCc7cccc(C(=O)OC)c7)cc6)nn5)nn4)cc3)oc3ccccc3c2=O)c1 | > 100 | > 100 | > 100
Cc1ccc2oc(-c3ccc(OCCCCc4cn(CCOCCOCCOc5ccc(-c6oc7ccccc7c(=O)c6OCc6ccccc6)cc5)nn4)cc3)cc(=O)c2c1 | > 100 | – | –
COC(=O)c1cccc(COc2c(-c3ccc(OCCOCCOCCn4cc(CN5CCN(Cc6cn(CCOCCOCCOc7ccc(-c8oc9ccccc9c(=O)c8OCc8cccc(C(=O)OC)c8)cc7)nn6)CC5)nn4)cc3)oc3ccccc3c2=O)c1 | > 100 | – | –
COC(=O)c1cccc(COc2c(-c3ccc(OCCOCCn4cc(CN(C)CCN(C)Cc5cn(CCOCCOc6ccc(-c7oc8ccccc8c(=O)c7OCc7cccc(C(=O)OC)c7)cc6)nn5)nn4)cc3)oc3ccccc3c2=O)c1 | > 100 | – | –
O=c1cc(-c2ccccc2)oc2cc(OCCCCc3cn(CCOCCOc4ccc(-c5oc6ccccc6c(=O)c5OCc5ccccc5)cc4)nn3)ccc12 | > 100 | – | –

Structure (SMILES) | IC50 [1] [µM] | IC50 [2] [µM] | IC50 [3] [µM]
O=c1cc(-c2ccccc2)oc2cc(OCCCCc3cn(CCOCCOc4ccc5c(=O)cc(-c6ccccc6)oc5c4)nn3)ccc12 | > 100 | – | –
O=c1cc(-c2ccccc2)oc2cc(OCCn3cc(CN(Cc4ccccc4)Cc4cn(CCOc5ccc6c(=O)cc(-c7ccccc7)oc6c5)nn4)nn3)ccc12 | > 100 | – | –
Cc1ccc2oc(-c3ccc(OCCCCc4cn(CCN(CCOc5ccc6c(=O)cc(-c7ccccc7)oc6c5)Cc5ccccc5)nn4)cc3)cc(=O)c2c1 | > 100 | – | –
Cc1ccc2oc(-c3ccc(OCCCCc4cn(CCOCCOCCOc5ccc(-c6cc(=O)c7ccccc7o6)cc5)nn4)cc3)cc(=O)c2c1 | > 50 | – | –
O=c1cc(-c2ccccc2)oc2cc(OCCCCc3cn(CCOCCOc4ccc(-c5cc(=O)c6cc(F)ccc6o5)cc4)nn3)ccc12 | > 100 | – | –
COC(=O)c1cccc(COc2c(-c3ccc(OCCOCCn4cc(CCCCOc5ccc(-c6cc(=O)c7cc(C)ccc7o6)cc5)nn4)cc3)oc3ccccc3c2=O)c1 | > 100 | – | –
O=c1cc(-c2ccccc2)oc2cc(OCCOCCn3cc(CN(Cc4ccccc4)Cc4cn(CCOCCOc5ccc6c(=O)cc(-c7ccccc7)oc6c5)nn4)nn3)ccc12 | > 100 | – | –
O=c1cc(-c2ccccc2)oc2cc(OCCOCc3cn(CCOCCOc4ccc(-c5oc6ccccc6c(=O)c5OCc5ccccc5)cc4)nn3)ccc12 | > 100 | – | –
O=c1cc(-c2ccccc2)oc2cc(OCCOCCOCCn3cc(CN(CCOc4ccc5c(=O)cc(-c6ccccc6)oc5c4)Cc4ccccc4)nn3)ccc12 | > 100 | – | –
O=c1cc(-c2ccc(OCCOCCOCCn3cc(CCCCOc4ccc5c(=O)cc(-c6ccccc6)oc5c4)nn3)cc2)oc2ccccc12 | > 50 | – | –
COC(=O)c1cccc(COc2c(-c3ccc(OCCOCCn4cc(CN5CCCN(Cc6cn(CCOCCOc7ccc(-c8oc9ccccc9c(=O)c8OCc8cccc(C(=O)OC)c8)cc7)nn6)CC5)nn4)cc3)oc3ccccc3c2=O)c1 | > 100 | – | –
COC(=O)c1cccc(COc2c(-c3ccc(OCCOCCn4cc(-c5ccc(-c6cn(CCOCCOc7ccc(-c8oc9ccccc9c(=O)c8OCc8cccc(C(=O)OC)c8)cc7)nn6)cc5)nn4)cc3)oc3ccccc3c2=O)c1 | > 100 | – | –
Cc1ccc2oc(-c3ccc(OCCOCCOCCn4cc(COCCOc5ccc6c(=O)cc(-c7ccccc7)oc6c5)nn4)cc3)cc(=O)c2c1 | > 100 | – | –
COC(=O)c1cccc(COc2c(-c3ccc(OCCOCCn4cc(CCCOc5ccc(-c6cc(=O)c7ccc(F)cc7o6)cc5)nn4)cc3)oc3ccccc3c2=O)c1 | > 100 | – | –
O=c1cc(-c2ccccc2)oc2cc(OCCOCc3cn(CCOCCOc4ccc(-c5cc(=O)c6cc(F)ccc6o5)cc4)nn3)ccc12 | > 100 | – | –
O=c1cc(-c2ccccc2)oc2cc(OCCN(Cc3ccccc3)Cc3cn(CCOCCOCCOc4ccc(-c5oc6ccccc6c(=O)c5OCc5ccccc5)cc4)nn3)ccc12 | > 100 | – | –
O=c1cc(-c2ccccc2)oc2cc(OCCCCc3cn(CCOCCOCCOc4ccc(-c5cc(=O)c6cc(F)ccc6o5)cc4)nn3)ccc12 | > 100 | – | –
COC(=O)c1cccc(COc2c(-c3ccc(OCCOCCOCCn4cc(COCCOc5ccc6c(=O)cc(-c7ccccc7)oc6c5)nn4)cc3)oc3ccccc3c2=O)c1 | > 100 | – | –
Cc1ccc2oc(-c3ccc(OCCCCc4cn(CCN(CCOc5ccc(-c6cc(=O)c7ccccc7o6)cc5)Cc5ccccc5)nn4)cc3)cc(=O)c2c1 | > 100 | – | –
COC(=O)c1cccc(COc2c(-c3ccc(OCCOCCOCCn4cc(CCCCOc5ccc6c(=O)cc(-c7ccccc7)oc6c5)nn4)cc3)oc3ccccc3c2=O)c1 | > 100 | – | –

Structure (SMILES) | IC50 [1] [µM] | IC50 [2] [µM] | IC50 [3] [µM]
Cc1ccc2oc(-c3ccc(OCCOCCOCCn4cc(CN(Cc5ccccc5)Cc5cn(CCOCCOCCOc6ccc(-c7cc(=O)c8cc(C)ccc8o7)cc6)nn5)nn4)cc3)cc(=O)c2c1 | > 100 | – | –
COC(=O)c1cccc(COc2c(-c3ccc(OCCOCCn4cc(CCCOc5ccc6c(=O)cc(-c7ccccc7)oc6c5)nn4)cc3)oc3ccccc3c2=O)c1 | > 100 | – | –
COC(=O)c1cccc(COc2c(-c3ccc(OCCOCCn4cc(CCCCOc5ccc6c(=O)cc(-c7ccccc7)oc6c5)nn4)cc3)oc3ccccc3c2=O)c1 | > 100 | – | –
O=c1cc(-c2ccccc2)oc2cc(OCCCCc3cn(CCOCCOCCOc4ccc(-c5oc6ccccc6c(=O)c5OCc5ccccc5)cc4)nn3)ccc12 | > 100 | – | –
OCCOCCn1cc(CN(Cc2ccccc2)Cc2cn(CCOCCO)nn2)nn1 | > 100 | – | –
Cc1ccc2oc(-c3ccc(OCCCCc4cn(CCOc5ccc6c(=O)cc(-c7ccccc7)oc6c5)nn4)cc3)cc(=O)c2c1 | 9.2 | – | –
O=c1cc(-c2ccc(OCCOCCOCCn3cc(COCCOc4ccc5c(=O)cc(-c6ccccc6)oc5c4)nn3)cc2)oc2ccccc12 | 22 | – | –
Cc1ccc2oc(-c3ccc(OCCOCCOCCOCCOCCOc4ccc(-c5cc(=O)c6cc(C)ccc6o5)cc4)cc3)cc(=O)c2c1 | > 100 | – | –
Cc1ccc2oc(-c3ccc(OCCCCc4cn(CCOCCOc5ccc(-c6oc7ccccc7c(=O)c6OCc6ccccc6)cc5)nn4)cc3)cc(=O)c2c1 | > 100 | – | –
Cc1ccc2oc(-c3ccc(OCCOCCOCCn4cc(CN(CCOc5ccc6c(=O)cc(-c7ccccc7)oc6c5)Cc5ccccc5)nn4)cc3)cc(=O)c2c1 | > 100 | – | –
O=c1cc(-c2ccc(OCCCc3cn(CCOCCOCCOc4ccc(-c5oc6ccccc6c(=O)c5OCc5ccccc5)cc4)nn3)cc2)oc2cc(F)ccc12 | > 100 | – | –
O=c1cc(-c2ccccc2)oc2cc(OCCCCc3cn(CCOCCOCCOc4ccc5c(=O)cc(-c6ccccc6)oc5c4)nn3)ccc12 | > 100 | – | –
COC(=O)c1cccc(COc2c(-c3ccc(OCCOCCn4cc(CN5CCN(Cc6cn(CCOCCOc7ccc(-c8oc9ccccc9c(=O)c8OCc8cccc(C(=O)OC)c8)cc7)nn6)CC5)nn4)cc3)oc3ccccc3c2=O)c1 | > 100 | – | –
Cc1ccc2oc(-c3ccc(OCCOCCOCCn4cc(CCCOc5ccc6c(=O)cc(-c7ccccc7)oc6c5)nn4)cc3)cc(=O)c2c1 | > 50 | – | –
O=c1cc(-c2ccc(OCCOCCOCCn3cc(CCCOc4ccc5c(=O)cc(-c6ccccc6)oc5c4)nn3)cc2)oc2ccccc12 | 12 | – | –
COC(=O)c1cccc(COc2c(-c3ccc(OCCOCCOCCn4cc(CCCOc5ccc(-c6cc(=O)c7ccc(F)cc7o6)cc5)nn4)cc3)oc3ccccc3c2=O)c1 | > 100 | – | –
O=c1c(OCc2ccccc2)c(-c2ccc(OCCOCCOCCn3cc(CN(Cc4ccccc4)Cc4cn(CCOCCOCCOc5ccc(-c6oc7ccccc7c(=O)c6OCc6ccccc6)cc5)nn4)nn3)cc2)oc2ccccc12 | > 100 | – | –
Cc1ccc2oc(-c3ccc(OCCCCc4cn(CCOCCOCCOc5ccc6c(=O)cc(-c7ccccc7)oc6c5)nn4)cc3)cc(=O)c2c1 | > 100 | – | –
O=c1cc(-c2ccccc2)oc2cc(OCCOCCOCCn3cc(CN(Cc4ccccc4)Cc4cn(CCOCCOCCOc5ccc6c(=O)cc(-c7ccccc7)oc6c5)nn4)nn3)ccc12 | > 100 | – | –
